Measured values published in patent publication US8242058B2, “Reagents and methods for appending functional groups to proteins” (Wisconsin Alumni Research Foundation, priority 2006, dated 2012).

Tests used:
[1] = target: T1, ribonuclease inhibitor protein (RI) (Homo sapiens, UniProt P13489); assay: RI binding to immobilized RNase A (immunoassay, ellipsometry); details: RI 10 μM, 10 min at 4° C.
T1 sequence (P13489 2-461 limits assumed): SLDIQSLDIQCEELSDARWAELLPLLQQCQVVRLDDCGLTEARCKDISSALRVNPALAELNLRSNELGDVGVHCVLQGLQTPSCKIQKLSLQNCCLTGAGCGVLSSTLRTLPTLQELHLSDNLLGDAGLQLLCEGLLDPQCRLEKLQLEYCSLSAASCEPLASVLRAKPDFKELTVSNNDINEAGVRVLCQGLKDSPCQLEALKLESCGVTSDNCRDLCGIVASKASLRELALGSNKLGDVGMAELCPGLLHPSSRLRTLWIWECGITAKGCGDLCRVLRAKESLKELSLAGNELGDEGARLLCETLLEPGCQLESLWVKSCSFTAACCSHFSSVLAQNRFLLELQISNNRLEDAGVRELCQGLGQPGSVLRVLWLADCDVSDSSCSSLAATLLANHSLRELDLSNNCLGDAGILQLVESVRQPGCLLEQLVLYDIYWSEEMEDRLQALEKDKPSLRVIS
Procedure: RI binding to immobilized RNase A. Azido-RNase A (1 μL, 10 μM in 5% DMF/water) was spotted on phosphinothioester-displaying SAMs on a gold chip for 15 minutes at r.t. in an AtmosBag™ filled with Ar(g). The chip was taken out of the bag and rinsed with sodium phosphate buffer (25 mM) at pH 7.5 (2×20 mL) and incubated in the same buffer for 30 min to remove non-specifically bound RNase A. RI (10 μM in sodium phosphate buffer (25 mM) at pH 7.5 containing 10 mM DTT) was overlaid on the chip for 10 min at 4° C. The chip was then rinsed with sodium phosphate buffer (25 mM) at pH 7.5 containing 10 mM DTT (2×20 mL) and incubated in the same buffer for 15 min.
Detection of RI bound to immobilized RNase A. (i) Immunoassay: After RI binding, the chip was overlaid with bovine serum albumin (2.0 mg/mL in sodium phosphate buffer (25 mM) at pH 7.5) for 15 min. The chip was rinsed with sodium phosphate buffer (25 mM) at pH 7.5 (2×20 mL) and subsequently incubated with chicken primary antibody to RI (12.5 μg/mL in sodium phosphate buffer (25 mM) at pH 7.5) for 15 min. […] The chip was scanned with a Genomic Solutions® GeneTac UC4×4 Fluorescence Scanner using a gain of 50. […]

[2] = Immobilization on phosphinothioester-displaying chips by Staudinger ligation, immunofluorescence detection; details: 10 μM in 5% DMF/water, r.t.
Procedure: Preparation of Gold Chips (Chang). Preparation of Phosphinothioester-displaying SAMs of Alkane Thiols on Gold Chips. Alkane thiol solutions were prepared by dissolving HS—(CH2)11—(O—CH2—CH2)6—O—CH2—COOH and HS—(CH2)11—(O—CH2—CH2)3—OH in ethanol to a final concentration of 0.25 mM each. Gold chips were cleaned under a stream of Ar(g) and immersed in the alkane thiol solution for at least 18 h at r.t. After rinsing thoroughly with ethanol and drying under a stream of Ar(g), the chips were overlaid with an aqueous solution containing N-hydroxysuccinimide (50 mM) and 1-ethyl-3-(3-dimethylaminopropyl)-carbodiimide (200 mM) for 7 min to generate succinimidyl ester-displaying chips. Phosphinomethanethiol (PPh2CH2SH) was synthesized as described earlier and was dissolved in anhydrous DMF to a concentration of 100 mM. N,N-diisopropylethylamine (DIPEA) was added to a concentration of 120 mM. […]
Detection of Immobilized RNase A. A chip displaying immobilized RNase A was overlaid with anti-RNase A rabbit primary antibody (100 μg/mL in sodium phosphate buffer (25 mM) at pH 7.5) for 30 min at r.t. […] Finally, the chip was rinsed with sodium phosphate buffer (25 mM) at pH 7.5 (2×20 mL) and incubated in the same buffer for 15 min and scanned with a Genomic Solutions® GeneTac UC4×4 Fluorescence Scanner using a gain of 50.

[3] = system: 6-carboxyfluorescein-dArU(dA)2-6-carboxytetramethylrhodamine; assay: RNase A activity assay on immobilized RNase A; format: biochemical; details: chip overlaid with 10 μM protein, pH 6.0
Procedure: RNase A activity assay on immobilized RNase A. A phosphinothioester chip was overlaid with azido-RNase A (10 μM in 5% DMF/H2O) for 15 min in Ar(g) atmosphere in an AtmosBag™ to immobilize RNase A via Staudinger ligation. The chip was rinsed with sodium phosphate buffer (25 mM) at pH 7.5 (2×20 mL) and then introduced into a vial containing 2-(N-Morpholino)ethanesulfonic acid buffer (0.1 M) at pH 6.0 (22 mL, containing 0.1 M NaCl). A fluorogenic substrate of RNase A, 6-carboxyfluorescein-dArU(dA)2-6-carboxytetramethylrhodamine (10 μl of a 40 μM solution), was introduced into the vial. The vial was placed on a shaker and 2 mL aliquots were withdrawn at various time intervals and the fluorescence measured (λex=493 nm, λem=515 nm). The fluorescence intensity was plotted against time. A phosphinothioester chip was overlaid with wt-RNase A (10 μM in 5% DMF/H2O) and rinsed with sodium phosphate buffer (25 mM) at pH 7.5 (2×20 mL) and a similar assay was performed. As a negative control, a similar assay was performed on a phosphinothioester chip which was not overlaid with RNase A. The percentage of the fluorescent substrate cleaved at various time intervals were subtracted from the corresponding values for the negative control to generate the graph in FIG. 8.

RI binding to chip incubated with the protein [1]: bound RI
Substance: Met(−1)RNase A-Gly-NHNHCH2C(O)NHCH2CH2N3 [azido-RNase A]
time at which fluorescence signal of immobilized protein was detected [2]: ≤ 1 min | enzymatic activity of chip incubated with the protein (increase of fluorescence intensity) [3]: much faster rate
